Among the test systems are Escherichia coli K88; Bacillus cereus AS1.126; Escherichia coli AS1.349; Escherichia coli INV-a.
Holding throughout (experiment): ≥ marks a high value that may be exact or a test limit, other limits are often not marked, values filed in µg/mL are converted to µM
Test [1] concerns Mycobacterium tuberculosis H37Rv.
Test [2] deals with Escherichia coli O157:H7 CICC 21530.
The test system of test [3] is Lacticaseibacillus rhamnosus 1.0911.
The test system of test [4] is Lacticaseibacillus rhamnosus 1.0936.
Test [5] relates to Lacticaseibacillus rhamnosus 1.9021.
Test [6] has as its system Lacticaseibacillus rhamnosus 8014.
Test [7] has as its system Pseudomonas aeruginosa ATCC 27853.
For test [8], the system named is Pseudomonas aeruginosa PAO1.
The test system of test [9] is Salmonella enterica subsp. enterica serovar Choleraesuis CVCC 503.
Test [10] relates to Salmonella enterica subsp. enterica serovar Pullorum C79-13.
Test [11] relates to Salmonella enterica subsp. enterica serovar Typhimurium ATCC 14028.
Test [12] has as its system Staphylococcus aureus ATCC 29213.
The subject of test [13] is Staphylococcus aureus ATCC 43300.
For test [14], the system named is Staphylococcus epidermidis ATCC 12228.
The test system of test [15] is Streptococcus agalactiae BNCC 185941.
Test [16] concerns Enterobacter cloacae CGMCC 1.58.
For test [17], the system named is Enterococcus faecalis CGMCC 1.595.
Test [18] concerns Enterococcus faecium CGMCC 1.2334.
The test system of test [19] is Klebsiella aerogenes CGMCC 1.876.
The test system of test [20] is Klebsiella pneumoniae subsp. pneumoniae CGMCC 1.176.
Test [21] deals with Lactococcus lactis AS1.1690.
Test [22] concerns Pseudomonas aeruginosa CGMCC 1.860.
In test [23] the test system is Staphylococcus aureus AS1.72.
Test [24] relates to Lactococcus lactis MG1363.
In test [25] the test system is Bacillus cereus ATCC 11778.
For test [26], the system named is Bacillus thuringiensis ATCC 10792.
In test [27] the test system is Candida albicans ATCC 90028.
Test [28] has as its system Cryptococcus gattii ATCC 56990.
The test system of test [29] is Cryptococcus neoformans ATCC 90112.
Test [30] has as its system Enterococcus faecium CCT 5079.
The subject of test [31] is Enterococcus hirae ATCC 10541.
The test system of test [32] is Escherichia coli ATCC 11775.
Test [33] has as its system Escherichia coli ATCC 25922.
Test [34] relates to Escherichia coli CCT 1457.
The subject of test [35] is Micrococcus luteus ATCC 4698.
For test [36], the system named is Paracoccidioides brasiliensis.
The subject of test [37] is Paracoccidioides lutzii ATCC MYA-826.
In test [38] the test system is Pseudomonas aeruginosa ATCC 13388.
Test [39] deals with Pseudomonas aeruginosa ATCC 15422.
The subject of test [40] is Salmonella enterica subsp. enterica serovar Choleraesuis ATCC 10708.
The subject of test [41] is Staphylococcus aureus ATCC 25923.
For test [42], the system named is Staphylococcus aureus CCT 2580.
The subject of test [43] is Staphylococcus aureus CCT 6538.
Test [44] concerns Streptococcus mutans AU159.
Test [45] deals with Streptococcus pneumoniae ATCC 11733.

In DBAASP one finds MIC data, which are given here for 5 molecules.

Converted amounts (≈) assume the structure as drawn. Where only a bound is given, the exact number is not on record here.

Usually MIC stands for the lowest concentration found to suppress growth. Lower therefore signals a more susceptible organism. As to `CC(C)C[C@H](NC(=O)[C@H](C)N)C(=O)N[C@@H](CCCCN)C(=O)N[C@@H](CCCCN)C(=O)N[C@@H](CC(C)C)C(=O)N[C@H](C(=O)N[C@@H](CCCN=C(N)N)C(=O)N[C@@H](Cc1c[nH]c2ccccc12)C(=O)N[C@@H](Cc1c[nH]c2ccccc12)C(=O)N[C@@H](CCCCN)C(=O)N[C@@H](CCCN=C(N)N)C(=O)N[C@@H](Cc1c[nH]c2ccccc12)C(=O)N[C@@H](Cc1c[nH]c2ccccc12)C(=O)N[C@@H](CO)C(=O)N[C@@H](CCCCN)C(=O)O)C(C)C` [ALKKLVRWWKRWWSK], in [1], the minimal inhibitory concentration (MIC) turned out to be 18.1 µM (≈ 37.5 µg/mL).
In the case of `CC(C)C[C@H](NC(=O)[C@H](CCCCN)NC(=O)[C@H](CCCCN)NC(=O)CN)C(=O)N[C@@H](CC(C)C)C(=O)N[C@@H](Cc1c[nH]c2ccccc12)C(=O)N[C@@H](CC(C)C)C(=O)N[C@@H](CC(C)C)C(=O)N[C@@H](CCCCN)C(=O)N[C@@H](CCCCN)C(=O)NCC(N)=O` [GKKLLWLLKKG], the MIC against Escherichia coli K88 was 16 µM (≈ 20.5 µg/mL); in [2], ≥ 64 µM; in test [3], ≥ 128 µM; in test [4] it was ≥ 128 µM; in test [5], ≥ 128 µM; in test [6], ≥ 128 µM. Besides, the MIC is > 128 µM in test [7]; 64 µM (≈ 82.1 µg/mL) in test [8]; ≥ 64 µM in test [9]; 16 µM (≈ 20.5 µg/mL) in test [10]; > 128 µM in test [11]; > 128 µM in [12]. In addition, the MIC was > 128 µM in test [13], > 128 µM in [14] and ≥ 128 µM in test [15].
Regarding `NC(N)=NCCC[C@H](NC(=O)[C@H](Cc1cnc[nH]1)NC(=O)[C@H](Cc1c[nH]c2ccccc12)NC(=O)[C@H](Cc1ccccc1)NC(=O)[C@H](CCCN=C(N)N)NC(=O)[C@H](CCCN=C(N)N)NC(=O)[C@H](Cc1c[nH]c2ccccc12)NC(=O)[C@@H](N)Cc1cnc[nH]1)C(=O)O` [HWRRFWHR], the MIC against Bacillus cereus AS1.126 is 3.13 µM (≈ 4.01 µg/mL); in [16], ≥ 100 µM; in test [17], 12.5 µM (≈ 16 µg/mL); in [18] it was 12.5 µM (≈ 16 µg/mL); with Escherichia coli AS1.349 it was 12.5 µM (≈ 16 µg/mL); in [19] it was ≥ 100 µM. Also, the MIC in [20] was ≥ 100 µM; in [21], 25 µM (≈ 32 µg/mL); in [22] it was 12.5 µM (≈ 16 µg/mL); in test [23] it was 12.5 µM (≈ 16 µg/mL).
For the molecule `CC[C@H](C)[C@H](N)C(=O)N[C@@H](CC(N)=O)C(=O)N[C@@H](Cc1c[nH]c2ccccc12)C(=O)N[C@@H](CCCCN)C(=O)NCC(=O)N[C@H](C(=O)N[C@@H](C)C(=O)N[C@@H](C)C(=O)N[C@@H](CCSC)C(=O)N[C@@H](C)C(=O)N[C@@H](CCCCN)C(=O)N[C@@H](CCCCN)C(=O)N[C@@H](CC(C)C)C(=O)N[C@@H](C)C(N)=O)[C@@H](C)CC` [INWKGIAAMAKKLA], the values for the MIC (with Escherichia coli INV-a; in test [24]) were ≥ 33 µM and 21 µM (≈ 31.8 µg/mL), respectively.
For the molecule `CC[C@H](C)[C@H](N)C(=O)N[C@@H](CC(N)=O)C(=O)N[C@@H](Cc1c[nH]c2ccccc12)C(=O)N[C@@H](CC(C)C)C(=O)N[C@@H](CCCCN)C(=O)N[C@H](C(=O)N[C@@H](C)C(=O)N[C@@H](CCCCN)C(=O)N[C@@H](CCCCN)C(=O)N[C@H](C(=O)N[C@@H](CCCCN)C(=O)NCC(=O)N[C@@H](CCSC)C(=O)N[C@@H](CC(C)C)C(N)=O)C(C)C)[C@@H](C)CC` [INWLKIAKKVKGML], the MIC is 18.9 µM (≈ 31 µg/mL) in [25]; 18.9 µM (≈ 31 µg/mL) in test [26]; 9.51 µM (≈ 15.6 µg/mL) in test [27]; 9.5 µM (≈ 15.6 µg/mL) in test [28]; 19 µM (≈ 31.2 µg/mL) in [29]; 0.609 µM (≈ 0.999 µg/mL) in test [30]. The MIC in test [31] came to 9.74 µM (≈ 16 µg/mL); in [32], 9.74 µM (≈ 16 µg/mL); in test [33], 18.9 µM (≈ 31 µg/mL); in test [34], 2.44 µM (≈ 4 µg/mL); in test [35], 1.22 µM (≈ 2 µg/mL); in [36] it was 4.75 µM (≈ 7.8 µg/mL). In addition, the MIC amounted to 9.5 µM (≈ 15.6 µg/mL) in test [37]; 4.87 µM (≈ 8 µg/mL) in test [38]; 9.74 µM (≈ 16 µg/mL) in [39]; 18.9 µM (≈ 31 µg/mL) in test [40]; 4.87 µM (≈ 8 µg/mL) in test [11]; 2.44 µM (≈ 4 µg/mL) in test [41]. Also, the MIC was 2.44 µM (≈ 4 µg/mL) in test [42]; 4.87 µM (≈ 8 µg/mL) in test [43]; 1.22 µM (≈ 2 µg/mL) in test [14]; 4.87 µM (≈ 8 µg/mL) in test [44]; 0.609 µM (≈ 0.999 µg/mL) in test [45].
